Test results from US10738028B2, “Spiro three-membered ring, spiro five-membered ring peptide deformylase inhibitor and use thereof in antibacteria and anti-tumor” (priority 2016, dated 2020).
Converted amounts (≈) assume the structure as drawn. Like-named read-outs stand apart in the source and are kept apart here.

Experiments:
[1] = system: methicillin-sensitive Staphylococcus aureus (MSSA); assay: MIC, two-fold agar dilution (CLSI), clinical isolates; type: cell-based
How it was run: (§1)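 Following the American Clinical and Laboratory Standards Institute procedure, agar two-fold dilution served to determine minimum inhibitory concentrations.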

[2] = system: Enterococcus faecalis (EFA); assay: as above; type: cell-based
How it was run: as §1

[3] = system: methicillin-resistant Staphylococcus epidermidis (MRSE); assay: as above; type: cell-based
How it was run: as §1

[4] = system: methicillin-sensitive Staphylococcus epidermidis (MSSE); assay: as above; type: cell-based
How it was run: as §1

[5] = system: Escherichia coli (including ESBLs, non-ESBLs); assay: as above; type: cell-based
How it was run: as §1

[6] = system: methicillin-resistant Staphylococcus aureus (MRSA); assay: as above; type: cell-based
How it was run: as §1

[7] = system: HCT-116 colorectal cancer cell line; assay: CCK-8 proliferation inhibition; type: cell-based; settings: Homo sapiens, HCT-116, 72 h, read-out: HCT116 inhibition rate/%
How it was run: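 Proliferation over 72 hours of compound treatment was measured with CCK-8 against a 1‰ DMSO control.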

[8] = system: methemoglobin in blood samples of three healthy volunteers; assay: Toxicity on methemoglobin in vitro (whole blood with S9 and NADPH, absorbance at 630 nm); type: cell-based, human; settings: for MetHb % (n = 3): 500 μM compound, whole blood + S9 + NADPH, 5 hours at 37° C.; for probability of methemoglobin formation in blood compared with the control drugs LBM415 and GSK1322322: toxicity test in vitro, in words
Procedure: Because PDF inhibitors such as LBM415 and GSK1322322 can produce active species such as aromatic hydroxylamine and aromatic hydrazines in metabolic process, and cause human methemoglobinemia. To this end, continuous wavelength method was adopted in this invention to scan the absorption spectrum of blood samples in the wavelength range of 500 to 700 nm in the ultraviolet-visible spectrophotometer, and the contents of methemoglobin in blood samples of three healthy volunteers were calculated, after being effected by the synthesized compounds.
Experimental materials: Nicotinamide adenine dinucleotide phosphate (NADPH) reduction system: glucose-6-disodium phosphate, nicotinamide adenine dinucleoside phosphate and glucose-6-phosphate dehydrogenase (purchased from Shanghai yuanye Bio-Technology Co., Ltd) were added to 1 mL of phosphate buffer solution (PBS, pH 7.4), and the mixture was shaked in a shaker type water bath at 37° C. for 10 min, and then cooled to 0° C. Mixed human hepatocytes fraction S9 was purchased from Xenotech (20 mg S9 protein/1 mL suspension medium). Compounds were prepared to stock solution at a concentration of 50 mM, which was stored at −20° C. for use. Dapsone was used as positive control experimental reagent, which was purchased from Sigma Aldrich. 1% w/v triton X-100 was self-prepared. Blood samples were collected using Vacutainer tubes containing EDTA anticoagulants (BD, Franklin Lakes, USA), which were sampled from three healthy volunteers and used immediately after sampling.
Preparation of incubation system for blood samples and drugs: 250 μL of incubation system was consist of 220 μL of whole blood, 25 μL of S9 (final concentration: 2 mg S9 protein/mL incubation solution), 2.5 μL of NADPH form system (final concentration: 10 mM G-6-P, 1 mM NADP, 7.5 Units/mL) and 2.5 μL of stock solution of a compound (final concentration 500 μM). […] of incubation system was placed in an Eppendorf tube and incubated for 5 hours at 37° C. in water bath.
Determination of the content of methemoglobin: 60 μL of an incubated sample was taken and lysed with 3.0 mL of 1% Triton X-100. The content of methemoglobin (MetHb) was measured by an ultraviolet-visible spectrophotometer, with the Triton X-100 solution used as blank control. A sample was placed in a cuvette, 1 minute later, the spectrums of the sample in the wavelength range from 500 nm to 700 nm were recorded. The sample was added with 2 mg of potassium ferricyanide, and was allowed to stay stationary for 2 minutes for completely oxidization of ferrous iron in the sample, and standard spectrum of methemoglobin with saturated potassium ferricyanide. The percentage of methemoglobin formation (MetHb %) was obtained by the ratio of absorbance at 630 nm. MetHb %=(A′−AB′)/AM′, wherein, A′ was the total absorbance of the sample at 630 nm, AB′ was the base absorbance of the reduced blood in the sample at 630 nm, and AM′ was the absorbance of oxidized blood with saturated potassium ferricyanide at 630 nm.

[9] = MIC in vitro anti-bacterial experiments, Gram-positive bacteria; type: cell-based; settings: lowest MIC reached; read-out: minimum inhibitory concentration against Gram-positive bacteria
Source text: 1. The invention adopts the two-fold agar dilution method recommended by the operating procedure of antimicrobial susceptibility testing set by American Clinical and Laboratory Standards Institute (CLSI) to determine the Minimum Inhibitory Concentration (MIC) of the test samples against the tested strains.

[10] = strain printed MRSA 14-1 (second line of that name, r23, before MRSE 14-2)
[11] = concentration of 30 μM, 72 hours, CCK-8

SMILES | MIC (anti-bacterial activity) ([1]; strain MSSA 14-1) [µg/mL] | MIC (anti-bacterial activity) ([1]; strain MSSA 14-2) [µg/mL] | MIC (anti-bacterial activity) ([1]; strain MSSA 14-3) [µg/mL] | MIC (anti-bacterial activity) ([1]; strain MSSA 14-4) [µg/mL] | MIC (anti-bacterial activity) ([2]; strain EFA 14-1) [µg/mL] | MIC (anti-bacterial activity) ([2]; strain EFA 14-2) [µg/mL] | MIC (anti-bacterial activity) ([2]; strain EFA 14-3) [µg/mL] | MIC (anti-bacterial activity) ([2]; strain EFA 14-5) [µg/mL] | MIC (anti-bacterial activity) ([3]; strain MRSE 14-2) [µg/mL] | MIC (anti-bacterial activity) ([3]; strain MRSE 14-3) [µg/mL] | MIC (anti-bacterial activity) ([3]; strain MRSE 14-4) [µg/mL] | MIC (anti-bacterial activity) ([4]; strain MSSE 14-1) [µg/mL] | MIC (anti-bacterial activity) ([4]; strain MSSE 14-2) [µg/mL] | MIC (anti-bacterial activity) ([4]; strain MSSE 14-3) [µg/mL] | MIC (anti-bacterial activity) ([4]; strain MSSE 14-4) [µg/mL] | MIC (anti-bacterial activity) ([5]; strain ECO+ 14-1) [µg/mL] | MIC (anti-bacterial activity) ([5]; strain ECO+ 14-2) [µg/mL] | MIC (anti-bacterial activity) ([5]; strain ECO− 14-1) [µg/mL] | MIC (anti-bacterial activity) ([5]; strain ECO− 14-2) [µg/mL] | MIC (anti-bacterial activity) ([6]; strain MRSA 14-1) [µg/mL] | further results
CCCC[C@H](CN(O)C=O)C(=O)N1CC2(CC2)C[C@H]1C(=O)Nc1ccc(F)c[n+]1[O-] [Example 2] | 0.125 (≈ 0.296 µM) | 0.125 (≈ 0.296 µM) | 0.125 (≈ 0.296 µM) | 0.125 (≈ 0.296 µM) | 0.25 (≈ 0.592 µM) | 0.5 (≈ 1.18 µM) | 0.5 (≈ 1.18 µM) | 128 (≈ 303 µM) | 0.06 (≈ 0.142 µM) | 0.06 (≈ 0.142 µM) | 0.125 (≈ 0.296 µM) | 0.03 (≈ 0.071 µM) | 0.125 (≈ 0.296 µM) | 0.03 (≈ 0.071 µM) | 0.03 (≈ 0.071 µM) | 1 (≈ 2.37 µM) | 64 (≈ 151 µM) | 128 (≈ 303 µM) | 64 (≈ 151 µM) | 0.25 (≈ 0.592 µM) | MIC ([6]; Staphylococcus aureus, MRSA, range over strains, read-out: minimum inhibitory concentration MIC against methicillin-resistant Staphylococcus (MRSA)): 0.125 to 0.25 µg/mL (≈ 0.296 to 0.592 µM); MIC (anti-bacterial activity) ([6]; strain MRSA 14-2): 0.25 µg/mL (≈ 0.592 µM); MIC (anti-bacterial activity) ([6]; strain MRSA 14-4): 0.125 µg/mL (≈ 0.296 µM); MIC (anti-bacterial activity) ([6]; strain MRSA 14-5): 0.125 µg/mL (≈ 0.296 µM); MIC (anti-bacterial activity) [6, 10]: 0.03 µg/mL (≈ 0.071 µM); inhibition at 30 µM [7, 11]: 2%; MetHb % (n = 3) [8]: 3.32 ± 0.05%; probability of methemoglobin formation in blood compared with the control drugs LBM415 and GSK1322322 [8]: lower probability of methemoglobin formation in blood
CCCC[C@H](CN(O)C=O)C(=O)N1CC2(CC2)C[C@H]1C(=O)Nc1ccc(C)c(Nc2nccc(-c3cccnc3)n2)c1 [Example 4] | 0.015 (≈ 0.0262 µM) | 0.015 (≈ 0.0262 µM) | 0.015 (≈ 0.0262 µM) | 0.015 (≈ 0.0262 µM) | 0.03 (≈ 0.0525 µM) | 0.015 (≈ 0.0262 µM) | 0.03 (≈ 0.0525 µM) | > 128 | < 0.008 | < 0.008 | < 0.008 | 0.015 (≈ 0.0262 µM) | < 0.008 | < 0.008 | 0.015 (≈ 0.0262 µM) | 4 (≈ 7 µM) | > 128 | > 128 | > 128 | 0.015 (≈ 0.0262 µM) | MIC (anti-bacterial activity) ([6]; strain MRSA 14-2): 0.015 µg/mL (≈ 0.0262 µM); MIC (anti-bacterial activity) ([6]; strain MRSA 14-4): < 0.008 µg/mL; MIC (anti-bacterial activity) ([6]; strain MRSA 14-5): < 0.008 µg/mL; MIC (anti-bacterial activity) [6, 10]: < 0.008 µg/mL; inhibition at 30 µM [7, 11]: 18%; MIC [9]: < 0.008 µg/mL
CCCC[C@H](CN(O)C=O)C(=O)N1CC2(CC2)C[C@H]1C(=O)Nc1cccc(Nc2ncccn2)c1 [Example 8] | 0.25 (≈ 0.52 µM) | 0.25 (≈ 0.52 µM) | 0.25 (≈ 0.52 µM) | 0.125 (≈ 0.26 µM) | 0.5 (≈ 1.04 µM) | 1 (≈ 2.08 µM) | 1 (≈ 2.08 µM) | 1 (≈ 2.08 µM) | 0.25 (≈ 0.52 µM) | 0.06 (≈ 0.125 µM) | 0.25 (≈ 0.52 µM) | 0.125 (≈ 0.26 µM) | 0.25 (≈ 0.52 µM) | 0.125 (≈ 0.26 µM) | 0.25 (≈ 0.52 µM) | 1 (≈ 2.08 µM) | 64 (≈ 133 µM) | 128 (≈ 266 µM) | 128 (≈ 266 µM) | 0.25 (≈ 0.52 µM) | MIC (anti-bacterial activity) ([6]; strain MRSA 14-2): 0.25 µg/mL (≈ 0.52 µM); MIC (anti-bacterial activity) ([6]; strain MRSA 14-4): 0.25 µg/mL (≈ 0.52 µM); MIC (anti-bacterial activity) ([6]; strain MRSA 14-5): 0.125 µg/mL (≈ 0.26 µM); MIC (anti-bacterial activity) [6, 10]: 0.125 µg/mL (≈ 0.26 µM); inhibition at 30 µM [7]: 11%; MetHb % (n = 3) [8]: 4.12 ± 0.07%; probability of methemoglobin formation in blood compared with the control drugs LBM415 and GSK1322322 [8]: lower probability of methemoglobin formation in blood
CCCC[C@H](CN(O)C=O)C(=O)N1CC2(CC2)C[C@H]1C(=O)Nc1nccc(-c2cccnc2)n1 [Example 9] | 0.25 (≈ 0.536 µM) | 0.5 (≈ 1.07 µM) | 0.5 (≈ 1.07 µM) | 0.25 (≈ 0.536 µM) | 0.5 (≈ 1.07 µM) | 0.5 (≈ 1.07 µM) | 1 (≈ 2.14 µM) | 0.5 (≈ 1.07 µM) | 0.25 (≈ 0.536 µM) | 0.125 (≈ 0.268 µM) | 0.5 (≈ 1.07 µM) | 0.125 (≈ 0.268 µM) | 0.5 (≈ 1.07 µM) | 0.25 (≈ 0.536 µM) | 0.5 (≈ 1.07 µM) | 2 (≈ 4.29 µM) | > 64 | > 64 | > 64 | 2 (≈ 4.29 µM) | MIC (anti-bacterial activity) ([6]; strain MRSA 14-2): 0.5 µg/mL (≈ 1.07 µM); MIC (anti-bacterial activity) ([6]; strain MRSA 14-4): 2 µg/mL (≈ 4.29 µM); MIC (anti-bacterial activity) ([6]; strain MRSA 14-5): 0.25 µg/mL (≈ 0.536 µM); MIC (anti-bacterial activity) [6, 10]: 0.25 µg/mL (≈ 0.536 µM); inhibition at 30 µM [7]: 6%; MetHb % (n = 3) [8]: 1.13 ± 0.06%; probability of methemoglobin formation in blood compared with the control drugs LBM415 and GSK1322322 [8]: lower probability of methemoglobin formation in blood
